The values below come from PubChem BioAssay (NCI).

Each structure is given as a SMILES string. Several values for one entry are separate records, joined by “and”; a condition that tells them apart may be missing. Equal values may be shown once.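 Dose response: 5 concentrations. Exposure: 48 h. Format: 96-well plates. Endpoint: linear interpolation; highest concentration if not reached. Abbreviation: GI50, concentration required for 50% inhibition of growth. The concentration for full growth arrest is given as TGI.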

Among the test systems are HCT-116 colon; MDA-MB-231 breast; BT-549 breast; SN12C renal; RXF 393 renal; A498 renal; NCI-H226 lung; DU-145 prostate; SR leukemia; HOP-92 NSCLC.
What all share (assay): DTP human tumour cell line panel, 48 h

For the compound `O=C(Nc1cccc(-n2ccc3c(NC(=O)c4ccccc4)nccc32)c1)c1cccc(C(F)(F)F)c1`, the concentration for 50% growth inhibition (GI50) is 0.0364 µM in the experiment on HCT-116 colon; 0.0533 µM in the experiment with MDA-MB-231 breast; 0.127 µM in the experiment with BT-549 breast; 0.0591 µM in the experiment with SN12C renal; 0.0187 µM with RXF 393 renal; 0.02 µM in the experiment with A498 renal. Also, the concentration for 50% growth inhibition (GI50) is 0.153 µM with NCI-H226 lung, 0.0363 µM with DU-145 prostate, 0.0284 µM in the experiment on SR leukemia and 0.281 µM in the experiment with HOP-92 NSCLC. Besides, the concentration for total growth inhibition (TGI) with HCT-116 colon was 1.46 µM; in the experiment on MDA-MB-231 breast, 1.29 µM; with BT-549 breast, 1.3 µM; in the experiment with SN12C renal it was more than 59.3 µM; in the experiment on RXF 393 renal, 0.0442 µM; in the experiment with A498 renal, 0.0772 µM. Moreover, the TGI in the experiment on NCI-H226 lung was more than 68.6 µM; in the experiment on DU-145 prostate it was 0.168 µM; in the experiment with HOP-92 NSCLC, 8.07 µM.
Consider `CC(=O)c1ccc(Nc2cc(-c3ccccc3)nc3c(O)cccc23)cc1`, for which the GI50 is 5.79 µM in the experiment on HCT-116 colon; 24 µM with MDA-MB-231 breast; 28.7 µM in the experiment on BT-549 breast; 24.7 µM in the experiment on SN12C renal; 17.4 µM with RXF 393 renal; 25.3 µM with A498 renal. The GI50 in the experiment on NCI-H226 lung is 28.2 µM; in the experiment with DU-145 prostate, 21.8 µM; in the experiment on SR leukemia, 1.59 µM; with HOP-92 NSCLC, 13.7 µM. Also, the total growth inhibition concentration (TGI) in the experiment with HCT-116 colon was 90.2 µM; in the experiment on MDA-MB-231 breast, 55.7 µM; with BT-549 breast, more than 100 µM; in the experiment on SN12C renal, 58.2 µM; in the experiment with RXF 393 renal, 60.3 µM; in the experiment on A498 renal, 71.7 µM. For the same compound, the TGI was more than 100 µM in the experiment on NCI-H226 lung, more than 100 µM in the experiment with DU-145 prostate, 49.5 µM with SR leukemia and 50.5 µM in the experiment on HOP-92 NSCLC.
As for `COc1c(C2CC(=O)Nc3c2cnn3Cc2ccco2)cc2c(c1OC)OCO2` (centres undefined), the GI50 in the experiment with HCT-116 colon is 0.457 µM; in the experiment on MDA-MB-231 breast, 1.67 µM; with BT-549 breast it was 1.1 µM; in the experiment on SN12C renal, 1.94 µM; in the experiment on RXF 393 renal, 0.35 µM; in the experiment with A498 renal it was 0.21 µM. The GI50 in the experiment on NCI-H226 lung was 3.85 µM; in the experiment with DU-145 prostate, 0.522 µM; with SR leukemia, 0.437 µM; in the experiment with HOP-92 NSCLC it was 0.424 µM. Also, the TGI in the experiment with HCT-116 colon was more than 100 µM; in the experiment with MDA-MB-231 breast, more than 26.4 µM; in the experiment with BT-549 breast, more than 100 µM; in the experiment on SN12C renal, more than 100 µM; with RXF 393 renal, more than 19.7 µM; with A498 renal, 0.932 µM. The TGI in the experiment with NCI-H226 lung was more than 100 µM; with DU-145 prostate, 24.6 µM; with SR leukemia, more than 100 µM; in the experiment with HOP-92 NSCLC, 98 µM.
For the compound `CC1(C)N=C(N)N=C(N)N1c1ccc(CCCCc2ccc(S(=O)(=O)F)cc2)cc1`, the GI50 with HCT-116 colon is 0.373 µM; with MDA-MB-231 breast, 3.53 µM; with BT-549 breast, 7.97 µM; in the experiment on SN12C renal it was 1.2 µM; in the experiment on RXF 393 renal, 0.79 µM; in the experiment with A498 renal, 3.81 µM. Also, the GI50 in the experiment on NCI-H226 lung was 1.99 µM; with DU-145 prostate, 0.833 µM; in the experiment on SR leukemia, 0.58 µM; in the experiment with HOP-92 NSCLC it was 4.48 µM. Also, the concentration for total growth inhibition (TGI) was 15.8 µM with HCT-116 colon; 25 µM in the experiment with MDA-MB-231 breast; 20.9 µM in the experiment on BT-549 breast; 17.7 µM with SN12C renal; more than 100 µM in the experiment on RXF 393 renal; 87.6 µM with A498 renal. The TGI in the experiment with NCI-H226 lung was determined as 33.2 µM; in the experiment on DU-145 prostate, 28.2 µM; with SR leukemia, 25.8 µM; in the experiment with HOP-92 NSCLC it was 27.8 µM.
Consider `Clc1ccccc1C(c1ccccc1)(c1ccccc1)n1ccnc1`, for which the GI50 in the experiment with HCT-116 colon is 1.44 µM; with MDA-MB-231 breast it was 2.13 µM; in the experiment on BT-549 breast it was 2.54 µM; in the experiment on SN12C renal, 2.63 µM; with RXF 393 renal it was 2.89 µM; in the experiment on A498 renal it was 2.15 µM. Further, the GI50 was 3.13 µM in the experiment with NCI-H226 lung, 4.87 µM in the experiment on DU-145 prostate, 1.86 µM in the experiment with SR leukemia and 1.57 µM with HOP-92 NSCLC. Also, the concentration for total growth inhibition (TGI) with HCT-116 colon is 3.35 µM and 23 µM; in the experiment on MDA-MB-231 breast it was 6.72 µM and 38.6 µM; in the experiment on BT-549 breast, 6.87 µM and 20.6 µM; in the experiment on SN12C renal, 13.3 µM; with RXF 393 renal, 9.28 µM and 42.1 µM; in the experiment with A498 renal it was 6.02 µM and 43.8 µM. In addition, the concentration for total growth inhibition (TGI) is 17.7 µM with NCI-H226 lung; 17.2 µM and 39.6 µM in the experiment on DU-145 prostate; 6.93 µM in the experiment on SR leukemia; 4.3 µM and 37.9 µM in the experiment on HOP-92 NSCLC.
Consider `C=C1C(=O)O[C@H]2[C@H]1CC/C(CNC(=O)c1c[nH]c3ccc(F)cc13)=C\CC[C@@]1(C)O[C@@H]21`, for which the GI50 in the experiment on HCT-116 colon was 0.632 µM; in the experiment with MDA-MB-231 breast it was 1.46 µM; in the experiment on BT-549 breast, 1.19 µM; in the experiment on SN12C renal, 1.98 µM; in the experiment with RXF 393 renal, 0.522 µM; in the experiment with A498 renal it was 1.99 µM. Also, the GI50 in the experiment on NCI-H226 lung is 13.9 µM; with DU-145 prostate it was 1.09 µM; in the experiment on SR leukemia, 1.01 µM; in the experiment on HOP-92 NSCLC it was 1.54 µM. For the same compound, the TGI in the experiment with HCT-116 colon is 1.98 µM; in the experiment on MDA-MB-231 breast, 3.58 µM; in the experiment with BT-549 breast, 2.7 µM; with SN12C renal, 5.42 µM; in the experiment with RXF 393 renal it was 1.75 µM; in the experiment on A498 renal it was 11.9 µM. The total growth inhibition concentration (TGI) with NCI-H226 lung came out at 38.6 µM; in the experiment with DU-145 prostate, 2.35 µM; with SR leukemia, 4.78 µM; in the experiment on HOP-92 NSCLC, 4.17 µM.
